“And” between values parts separate entries of the source, which are not always exact repeats. Identical values can stand only once. “Also recorded” adds a separate entry of the source. Like-named read-outs stand apart in the source and are kept apart here.
Experiments:
[1] = Plasma and brain trehalose levels 30 min post-dose in rat efficacy study (LC-MS/MS); assay type: in vivo, Sprague-Dawley rats; conditions: rats; for concentration at 30 min: Sprague-Dawley, rat
Experimental: Animal behavior was assessed pre-surgery and at 3 and 6 weeks post-surgery. Behaviour was assessed by the cylinder test to assess forelimb asymmetry with asymmetry indicating an imbalance in striatal dopaminergic function between the side injected with AAV1/2 αSYN and the contralateral side. Compounds that normalize the forelimb asymmetry are potentially useful for treating PD. After 6 weeks of trehalose treatment, the animals were killed approximately 30 mins after the last administration of trehalose. Striatal tissue from both hemispheres was collected and analysed for dopamine levels. Substantia nigra tissue was collected and analysed for the number of TH^+ve cells and the amount of A53T αSYN measured. Plasma and brain (cerebellum) samples were collected and trehalose levels analysed by LC-MS/MS.
When the animals were killed 30 mins post trehalose administration plasma and brain samples were collected (rats in the 0.89 g/kg/day group only received one dose of trehalose (0.89 g/kg) on this day). This time corresponds to approximately the Tmax of orally administered trehalose. […] Trehalose was measurable in the plasma 30 mins after receiving trehalose (0.89 or 2.67 g/kg) by oral gavage (Table 5). A 3-fold increase in the trehalose dose (0.89 g/kg to 2.67 g/kg) lead to an ˜6-fold increase in the trehalose plasma level, i.e. that increasing the dose produced a greater than dose-proportional increase in trehalose exposure. […] Trehalose was measurable in the brains of rats receiving trehalose (2.67 g/kg) by oral gavage (Table 5).
To better understand why administrating the same amount of trehalose by different routes led to differences in efficacy, studies were conducted to measure blood and brain levels of trehalose following administration of trehalose by 2% in the drinking water, three (3) times daily (0.89 g/kg each dose) and once daily (2.67 g/kg/day).

[2] = Plasma and brain pharmacokinetics in rats, 1 and 7 days oral administration; assay type: in vivo, Sprague-Dawley rats; conditions: for AUC(0-t): read-out: AUC0-12h
Experimental: One hundred Sprague-Dawley rats (200-260 g), female (60) and male (40), received trehalose (2.67 g/kg/day, oral gavage in sterile water) for 1 or 7 days. Groups of 5 rats (3 female, 2 male) were sacrificed at pre-dose and 15 min, 30 min, 1 h, 1.5 h, 2 h, 3 h, 4 h, 8 h and 12 h post-dose on days 1 and 7 and plasma and brain samples collected. Plasma and brain samples were analysed for trehalose levels using a validated LC-MS/MS method and plasma exposure timecourses (FIG. 1) and pharmacokinetic parameters were calculated (Table 6). Brain levels of trehalose were approximately 1% of plasma levels at all time-points (FIG. 1).

[3] = Plasma pharmacokinetics in macaques, 1 and 7 days oral administration; assay type: in vivo; conditions: for AUC(0-inf) / Cmax / Tmax / half-life / AUC(0-t): female, monkey, plasma, po, macaque plasma; for AUC(0-t): read-out: AUC0-24h
Experimental: Three female macaques (3.81-4.67 kg) received trehalose (2.67 and 5.34 g/kg/day, oral gavage in sterile water) for 7 days. Plasma samples were collected pre-dose and 15 min, 30 min, 1 h, 2 h, 4 h, 6 h, 12 h and 24 h post-dose on days 1 and 7 and analysed for trehalose levels using a validated LC-MS/MS method and plasma exposure time courses (FIG. 2) and pharmacokinetic parameters were calculated (Table 7).

[4] = Brain and CSF trehalose levels in macaques after two days administration; assay type: in vivo; conditions: female, macaque, oral; for concentration at 1 h: 2.67 g/kg for two days
Experimental: In a subsequent step, the same 3 macaques were administered trehalose (2.67 g/kg) for two days. The macaques were then killed 1 h post-administration on day 2 and terminal brain and CSF samples collected. The brain and CSF trehalose levels were 81.3±13.8 ng/g and 562±346.5 ng/ml respectively. Similar to rats, trehalose levels in macaque brain tissue were ˜1% of the plasma level at the corresponding timepoint.

[5] = Extrapolation from animal data to human plasma exposure; conditions: oral, humans, 2.67 g/kg, extrapolated from rat and macaque data, read-out: trehalose plasma Cmax (estimated)
Experimental: On a dose per body weight basis, trehalose produced very similar plasma and brain levels in rats and macaques (see FIG. 3 and Tables 6 and 7) when dosed with 2.67 g/kg/day. We also know that a trehalose dose of 2.67 g/kg/day was efficacious in the rat and non-human primate. Therefore, it is contemplated that an efficacious dose for humans includes 2.67 g/kg which is estimated to produce a trehalose plasma Cmax of ˜10000 ng/ml. From the rat data it is also clear that a dose of 0.89 g/kg will be ineffective.

MPTP-lesioned mouse = conditions: 2% trehalose in drinking water; Sarkar et al. 2014; cited from earlier work
Rotenone-lesioned rat = conditions: 2% trehalose in drinking water; Wu et al. 2015; cited from earlier work
AAV α-synuclein rat = conditions: 2 and 5% in drinking water; He et al. 2015; cited from earlier work
[6] = both sexes, Sprague-Dawley, po, rat brain, Day 1, 2.67 g/kg p.o.
[7] = both sexes, Sprague-Dawley, po, rat brain, Day 7, 2.67 g/kg/day p.o.
[8] = both sexes, Sprague-Dawley, po, rat plasma, Day 1, 2.67 g/kg p.o.
[9] = both sexes, Sprague-Dawley, po, rat plasma, Day 7, 2.67 g/kg/day p.o.
[10] = 2.67 g/kg/day, 2.67 g/kg/day p.o., Day 1
[11] = 2.67 g/kg/day, 2.67 g/kg/day p.o., Day 7
[12] = 5.34 g/kg/day, 5.34 g/kg/day p.o., Day 1
[13] = 5.34 g/kg/day, 5.34 g/kg/day p.o., Day 7

Which concentration at 30 min ([1]; brain (cerebellum), cerebellum, 2.67 g/kg once daily oral gavage, 30 min post-dose, read-out: Brain trehalose level) does the source give for `OC[C@H]1O[C@H](O[C@H]2O[C@H](CO)[C@@H](O)[C@H](O)[C@H]2O)[C@H](O)[C@@H](O)[C@@H]1O` [trehalose, (2R,3S,4S,5R,6R)-2-(Hydroxymethyl)-6-[(2R,3R,4S,5S,6R)-3,4,5-trihydroxy-6-(hydroxymethyl)oxan-2-yl]oxyoxane-3,4,5-triol] here?
Its concentration at 30 min is 52.8 ± 16.9 ng/mL.

And the concentration at 30 min ([1]; plasma, 0.89 g/kg 3 times daily oral gavage, 30 min after one 0.89 g/kg dose, read-out: Plasma trehalose level)?
The concentration at 30 min was 1130 ± 178 ng/mL.

What about the concentration at 30 min ([1]; plasma, 2.67 g/kg once daily oral gavage, 30 min post-dose, read-out: Plasma trehalose level) of the same compound?
Its concentration at 30 min is 6380 ± 890 ng/mL.

And the Brain trehalose level ([1]; cerebellum, 0.89 g/kg 3 times daily oral gavage, 30 min after one 0.89 g/kg dose)?
Its Brain trehalose level is “below the limit of detection and BLQ”.

What about the Brain trehalose level ([1]; cerebellum, 2% in drinking water) of the same compound?
Its Brain trehalose level is “below the limit of detection and BLQ”.

What about the Brain trehalose level ([1]; cerebellum, 2.67 g/kg once daily oral gavage, 30 min post-dose) of the same compound?
The Brain trehalose level was “measurable”.

What about the Plasma trehalose level ([1]; 0.89 g/kg 3 times daily oral gavage, 30 min after one 0.89 g/kg dose) of the same compound?
The Plasma trehalose level was “measurable”.

And the “increase in trehalose plasma level on 3-fold increase in dose” value ([1]; 0.89 g/kg to 2.67 g/kg, 30 min post-dose)?
Its value is 6 fold and 5.6 fold.

What about the Plasma trehalose level ([1]; 2% in drinking water, 6 weeks) of the same compound?
Its Plasma trehalose level is “below the limit of quantification and BLQ”.

And the Plasma trehalose level ([1]; 2.67 g/kg once daily oral gavage, 30 min post-dose)?
The Plasma trehalose level was “measurable”.

What about the AUC(0-inf) [2, 6] of the same compound?
The AUC(0-inf) was 97 ng·h/mL.

And the Cmax [2, 6]?
Its Cmax is 87 ng/mL.

And the Tmax [2, 6]?
The Tmax was 15 min.

And the half-life [2, 6]?
Its half-life is 48.6 min.

And the AUC(0-t) [2, 6]?
Its AUC(0-t) is 86.8 ng·h/mL.

What about the AUC(0-inf) [2, 7] of the same compound?
Its AUC(0-inf) is 76.2 ng·h/mL.

And the Cmax [2, 7]?
Its Cmax is 73 ng/mL.

And the Tmax [2, 7]?
The Tmax was 15 min.

What about the half-life [2, 7] of the same compound?
Its half-life is 63.6 min.

And the AUC(0-t) [2, 7]?
Its AUC(0-t) is 65.3 ng·h/mL.

And the AUC(0-inf) [2, 8]?
The AUC(0-inf) was 11100 ng·h/mL.

What about the Cmax [2, 8] of the same compound?
Its Cmax is 8900 ng/mL.

What about the Tmax [2, 8] of the same compound?
Its Tmax is 15 min.

What about the half-life [2, 8] of the same compound?
The half-life was 45.6 min.

What about the AUC(0-t) [2, 8] of the same compound?
Its AUC(0-t) is 10900 ng·h/mL.

And the AUC(0-inf) [2, 9]?
The AUC(0-inf) was 9880 ng·h/mL.

And the Cmax [2, 9]?
Its Cmax is 8340 ng/mL.

What about the Tmax [2, 9] of the same compound?
The Tmax was 15 min.

What about the half-life [2, 9] of the same compound?
Its half-life is 53.4 min.

What about the AUC(0-t) [2, 9] of the same compound?
The AUC(0-t) was 9490 ng·h/mL.

And the Kp ([2]; both sexes, Sprague-Dawley, rat, brain, po, rats, 2.67 g/kg/day p.o., all time-points, read-out: Brain levels of trehalose as % of plasma levels)?
Its Kp is roughly 0.01.

And the “trehalose in plasma or brain 8 h post-dose” value ([2]; rats, 2.67 g/kg/day p.o., 8 h post-dose)?
The value was “no longer detectable; also recorded: No trehalose is found”.

And the AUC(0-inf) [3, 10]?
The AUC(0-inf) was 27400 ng·h/mL.

What about the Cmax [3, 10] of the same compound?
Its Cmax is 10900 ng/mL.

What about the Tmax [3, 10] of the same compound?
The Tmax was 49.8 min.

And the half-life [3, 10]?
The half-life was 66 min.

What about the AUC(0-t) [3, 10] of the same compound?
Its AUC(0-t) is 26700 ng·h/mL.

What about the AUC(0-inf) [3, 11] of the same compound?
Its AUC(0-inf) is 27400 ng·h/mL.

And the Cmax [3, 11]?
Its Cmax is 9580 ng/mL.

And the Tmax [3, 11]?
The Tmax was 40.2 min.

And the half-life [3, 11]?
The half-life was 90 min.

What about the AUC(0-t) [3, 11] of the same compound?
Its AUC(0-t) is 26000 ng·h/mL.

What about the AUC(0-inf) [3, 12] of the same compound?
Its AUC(0-inf) is 80000 ng·h/mL.

What about the Cmax [3, 12] of the same compound?
The Cmax was 37000 ng/mL.

What about the Tmax [3, 12] of the same compound?
Its Tmax is 40.2 min.

And the half-life [3, 12]?
The half-life was 108 min.

What about the AUC(0-t) [3, 12] of the same compound?
Its AUC(0-t) is 78900 ng·h/mL.

And the AUC(0-inf) [3, 13]?
The AUC(0-inf) was 57200 ng·h/mL.

What about the Cmax [3, 13] of the same compound?
The Cmax was 22400 ng/mL.

What about the Tmax [3, 13] of the same compound?
Its Tmax is 49.8 min.

What about the half-life [3, 13] of the same compound?
The half-life was 138 min.

And the AUC(0-t) [3, 13]?
The AUC(0-t) was 56500 ng·h/mL.

And the “trehalose in plasma ~8 h post-dose” value ([3]; macaques, oral administration, ~8 h post-dose)?
The value was “No trehalose was measurable”.

And the concentration at 1 h ([4]; CSF, 1 h post-administration on day 2, read-out: CSF trehalose level)?
Its concentration at 1 h is 562 ± 346 ng/mL.

What about the concentration at 1 h ([4]; brain, 1 h post-administration on day 2, read-out: brain trehalose level) of the same compound?
Its concentration at 1 h is 81.3 ± 13.8 ng/g.

And the Kp at 1 h ([4]; brain, 2.67 g/kg, corresponding timepoint (1 h), read-out: brain trehalose level as % of plasma level)?
Its Kp at 1 h is roughly 0.01.

And the Cmax [5]?
The Cmax was roughly 10000 ng/mL.

What about the Effect (MPTP-lesioned mouse) of the same compound?
Its Effect is “Neuroprotection”.

And the Effect (Rotenone-lesioned rat)?
Its Effect is “Neuroprotection”.

What about the Effect (AAV α-synuclein rat) of the same compound?
The Effect was “Neuroprotection”.
